pIC50: −log10 of the molar value. Where a name gives a salt, the structure may show the parent alone.
How the values were obtained:
c-Myc/Max/Ebox DNA = molecular target: T1, c-Myc/Max/Ebox DNA (Homo sapiens, UniProt P01106); assay: c-Myc/Max/Ebox DNA AlphaScreen Assay; format: binding; settings: Table 2, compounds of FIG. 1; calculated IC50 class
T1 construct: his6 (cleaved yes)
How it was run: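 Compounds were preincubated with free c-Myc (20 nM), biotinylated single-Ebox DNA (10 nM) and Ni acceptor beads before his6-Max (5 nM) and streptavidin donor beads were added. Buffer was 50 mM HEPES pH 8.0, 150 mM NaCl, BSA, Tween20, glycogen and DTT, with DMSO ≤2%. After 2 h incubation, AlphaScreen signal was read at 680 nm excitation and 520–620 nm emission.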

[1] = test system: human small lung cancer cell line H2171; assay: Cell Viability Assay (ATPlite); format: cell-based; settings: Homo sapiens, NCI-H2171, 72 h, Table 2, compounds of FIG. 1; H2171 cells, three days, ATPlite; calculated IC50 class; read-out: H2171 Activity
How it was run: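 H2171 cells were plated at 20,000 cells/mL and dosed immediately by pin transfer with a 10-point dose series in DMSO. After three days at 37° C, ATPlite luminescence served as the viability readout.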

T1 sequence (P01106 whole entry): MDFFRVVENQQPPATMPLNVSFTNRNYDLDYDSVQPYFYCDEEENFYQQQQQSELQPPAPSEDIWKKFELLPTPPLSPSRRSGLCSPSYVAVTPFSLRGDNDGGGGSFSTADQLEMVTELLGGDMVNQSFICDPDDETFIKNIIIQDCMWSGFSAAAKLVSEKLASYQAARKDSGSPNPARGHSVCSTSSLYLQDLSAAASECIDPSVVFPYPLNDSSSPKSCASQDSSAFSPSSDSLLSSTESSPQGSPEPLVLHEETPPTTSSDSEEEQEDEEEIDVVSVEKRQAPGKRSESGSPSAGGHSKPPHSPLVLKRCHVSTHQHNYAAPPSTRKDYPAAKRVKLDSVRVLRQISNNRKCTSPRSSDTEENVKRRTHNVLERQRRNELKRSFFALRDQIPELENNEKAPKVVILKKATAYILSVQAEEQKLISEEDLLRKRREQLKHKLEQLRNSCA

pIC50 (c-Myc/Max/Ebox DNA) | pIC50 [1] | SMILES
> 6.52 | 6.00 to 6.52 | CC[C@H](C)NCCC(=O)Nc1sc2c(c1-c1nc3cc(-c4ccncc4)ccc3s1)CCN(C1CCC1)C2 [Compound 595, (S)-3-(sec-butylamino)-N-(6-cyclobutyl-3-(5-(pyridin-4-yl)benzo[d]thiazol-2-yl)-4,5,6,7-tetrahydrothieno[2,3-c]pyridin-2-yl)propanamide]
< 5.00 | 6.00 to 6.52 | CC[C@H](C)NCCC(=O)Nc1sc2c(c1-c1nc3ccccc3s1)CCN(C1CC1)C2 [Compound 596, (S)—N-(3-(benzo[d]thiazol-2-yl)-6-cyclopropyl-4,5,6,7-tetrahydrothieno[2,3-c]pyridin-2-yl)-3-(sec-butylamino)propanamide]
> 6.52 | 6.00 to 6.52 | O=C(CCN[C@@H]1C[C@H]2CNC[C@H]2C1)Nc1sc2c(c1-c1nc3cc(-c4ccncc4)ccc3s1)CCNC2 [Compound 606, 3-(((3aR,5s,6aS)-octahydrocyclopenta[c]pyrrol-5-yl)amino)-N-(3-(5-(pyridin-4-yl)benzo[d]thiazol-2-yl)-4,5,6,7-tetrahydrothieno[2,3-c]pyridin-2-yl)propanamide]
5.00 to 6.00 | 6.00 to 6.52 | COCCNCCC(=O)Nc1sc2c(c1-c1nc3c(OC)cccc3s1)CCNC2 [Compound 613, N-(3-(4-Methoxybenzo[d]thiazol-2-yl)-4,5,6,7-tetrahydrothieno[2,3-c]pyridin-2-yl)-3-((2-methoxyethyl)amino)propanamide dihydrochloride]
> 6.52 | > 6.52 | CC[C@H](C)NCCC(=O)Nc1sc2c(c1-c1nc3cc(-c4ccncc4)ccc3s1)CCN(C1CC1)C2 [Compound 618, (S)-3-(sec-butylamino)-N-(6-cyclopropyl-3-(5-(pyridin-4-yl)benzo[d]thiazol-2-yl)-4,5,6,7-tetrahydrothieno[2,3-c]pyridin-2-yl)propanamide]
5.00 to 6.00 | > 6.52 | CC[C@H](C)NCCC(=O)Nc1sc2c(c1-c1nc3ccccc3s1)CCN(C1CC(F)(F)C1)C2 [Compound 619, (S)—N-(3-(benzo[d]thiazol-2-yl)-6-(3,3-difluorocyclobutyl)-4,5,6,7-tetrahydrothieno[2,3-c]pyridin-2-yl)-3-(sec-butylamino)propanamide]
> 6.52 | > 6.52 | CCOC(=O)CCOCCOCCOCCOCCOCCOCCNCCC(=O)Nc1sc2c(c1-c1nc3ccccc3s1)CCNC2 [Compound 622, Ethyl 1-((3-(benzo[d]thiazol-2-yl)-4,5,6,7-tetrahydrothieno[2,3-c]pyridin-2-yl)amino)-1-oxo-7,10,13,16,19,22-hexaoxa-4-azapentacosan-25-oate]
> 6.52 | > 6.52 | O=C(O)CCOCCOCCOCCOCCOCCOCCNCCC(=O)Nc1sc2c(c1-c1nc3ccccc3s1)CCNC2 [Compound 623]
> 6.52 | > 6.52 | CCC(C)NCCC(=O)Nc1sc2c(c1-c1nc3cc(-n4cnc(C)c4)ccc3s1)CCNC2 (stereo not drawn) [compound 149]
> 6.52 | > 6.52 | CCC(C)NCCC(=O)Nc1sc2c(c1-c1nc3cc(-c4cccnc4)ccc3s1)CCNC2 (stereo not drawn) [compound 150]
> 6.52 | > 6.52 | CCC(C)NCCC(=O)Nc1sc2c(c1-c1nc3cc(-c4cn[nH]c4)ccc3s1)CCNC2 (stereo not drawn) [compound 151]
> 6.52 | > 6.52 | CC(C)NCCC(=O)Nc1sc2c(c1-c1nc3cc(-c4cnn(C)c4)ccc3s1)CCNC2 [compound 161]
> 6.52 | > 6.52 | CC(C)NCCC(=O)Nc1sc2c(c1-c1nc3cc(C4=CCOCC4)ccc3s1)CCNC2 [compound 165]
> 6.52 | > 6.52 | CC(C)NCCC(=O)Nc1sc2c(c1-c1nc3cc(-n4cnc(Cl)c4)ccc3s1)CCNC2 [compound 173]
> 6.52 | > 6.52 | COCCNCCC(=O)Nc1sc2c(c1-c1nc3cc(-n4cnc(C)c4)ccc3s1)CCNC2 [compound 180]
> 6.52 | > 6.52 | CC(C)NCCC(=O)Nc1sc2c(c1-c1nc3cc(-c4ccc(S(C)(=O)=O)cc4)ccc3s1)CCNC2 [compound 181]
> 6.52 | > 6.52 | COCCNCCC(=O)Nc1sc2c(c1-c1nc3cc(-c4cnn(C)c4)ccc3s1)CCNC2 [compound 184]
> 6.52 | > 6.52 | Cc1cn(-c2ccc3nc(-c4c(NC(=O)CCNC(C)C)sc5c4CCNC5)sc3c2)cn1 [compound 186]
> 6.52 | > 6.52 | CC(C)NCCC(=O)Nc1sc2c(c1-c1nc3ccc(-c4ccncc4)cc3s1)CCNC2 [compound 192]
> 6.52 | > 6.52 | CC(C)NCCC(=O)Nc1sc2c(c1-c1nc3ccc(-c4cccnc4)cc3s1)CCNC2 [compound 193]
> 6.52 | > 6.52 | CC(C)NCCC(=O)Nc1sc2c(c1-c1nc3cc(N4CCOCC4)ccc3s1)CCNC2 [compound 302]
> 6.52 | > 6.52 | COCCNCCC(=O)Nc1sc2c(c1-c1nc3cc(-c4ccncc4)ccc3s1)CCNC2 [compound 308]
> 6.52 | > 6.52 | COc1ccc2sc(-c3c(NC(=O)CCNC(C)C)sc4c3CCNC4)nc2c1 [compound 316]
> 6.52 | > 6.52 | COCCNCCC(=O)Nc1sc2c(c1-c1nc3cc(-c4ccc(C(=O)N5CCOCC5)cc4)ccc3s1)CCNC2 [compound 334]
> 6.52 | > 6.52 | COCCNCCC(=O)Nc1sc2c(c1-c1nc3cc(-c4cncc(F)c4)ccc3s1)CCNC2 [compound 337]

pIC50 (c-Myc/Max/Ebox DNA) | pIC50 [1] | SMILES
> 6.52 | > 6.52 | COCCNCCC(=O)Nc1sc2c(c1-c1nc3ccc(-c4cn[nH]c4)cc3s1)CCNC2 [compound 339]
> 6.52 | > 6.52 | COCCNCCC(=O)Nc1sc2c(c1-c1nc3cc(-c4ccnc(NC(C)=O)c4)ccc3s1)CCNC2 [compound 342]
> 6.52 | > 6.52 | COCCNCCC(=O)Nc1sc2c(c1-c1nc3cc(-c4cnc(N)nc4)ccc3s1)CCNC2 [compound 345]
> 6.52 | > 6.52 | COCCNCCC(=O)Nc1sc2c(c1-c1nc3cc(-c4cncc(OC)c4)ccc3s1)CCNC2 [compound 349]
> 6.52 | > 6.52 | COCCNCCC(=O)Nc1sc2c(c1-c1nc3ccc(-c4cc(C)[nH]n4)cc3s1)CCNC2 [compound 355]
> 6.52 | > 6.52 | COCCNCCC(=O)Nc1sc2c(c1-c1nc3ccc(-c4cnn(C(C)C)c4)cc3s1)CCNC2 [compound 358]
> 6.52 | > 6.52 | COCCNCCC(=O)Nc1sc2c(c1-c1nc3ccc(-c4cc[nH]n4)cc3s1)CCNC2 [compound 361]
> 6.52 | > 6.52 | CCN(CC)c1ccc(-c2ccc3sc(-c4c(NC(=O)CCNCCOC)sc5c4CCNC5)nc3c2)cc1 [compound 365]
> 6.52 | > 6.52 | COCCNCCC(=O)Nc1sc2c(c1-c1nc3ccc(-c4ccc(O)nc4)cc3s1)CCNC2 [compound 374]
> 6.52 | > 6.52 | COCCNCCC(=O)Nc1sc2c(c1-c1nc3ccc(-c4ccc(C#N)nc4)cc3s1)CCNC2 [compound 391]
> 6.52 | > 6.52 | COCCNCCC(=O)Nc1sc2c(c1-c1nc3cc(-c4cccc(C(=O)N(C)C)c4)ccc3s1)CCNC2 [compound 394]
> 6.52 | > 6.52 | COCCNCCC(=O)Nc1sc2c(c1-c1nc3cc(-c4cnc(OC)nc4)ccc3s1)CCNC2 [compound 404]
> 6.52 | > 6.52 | COCCNCCC(=O)Nc1sc2c(c1-c1nc3cc(-c4ccc(C#N)nc4)ccc3s1)CCNC2 [compound 405]
> 6.52 | > 6.52 | COCCNCCC(=O)Nc1sc2c(c1-c1nc3cc(-c4ccn[nH]4)ccc3s1)CCNC2 [compound 406]
> 6.52 | > 6.52 | COCCNCCC(=O)Nc1sc2c(c1-c1nc3cc(-c4ccc(C(=O)OC)nc4)ccc3s1)CCNC2 [compound 409]
> 6.52 | > 6.52 | COCCNCCC(=O)Nc1sc2c(c1-c1nc3cc(-c4ccnc(N)c4)ccc3s1)CCNC2 [compound 433]
> 6.52 | > 6.52 | COCCNCCC(=O)Nc1sc2c(c1-c1nc3cc(-c4cncc(N)c4)ccc3s1)CCNC2 [compound 443]
> 6.52 | > 6.52 | CCOC(=O)Cn1cc(-c2ccc3sc(-c4c(NC(=O)CCNCCOC)sc5c4CCNC5)nc3c2)cn1 [compound 445]
> 6.52 | > 6.52 | COCCNCCC(=O)Nc1sc2c(c1-c1nc3ccc(-c4ccnc(F)c4)cc3s1)CCNC2 [compound 456]
> 6.52 | > 6.52 | COCCNCCC(=O)Nc1sc2c(c1-c1nc3cc(-c4ccnc(F)c4)ccc3s1)CCNC2 [compound 458]
> 6.52 | > 6.52 | COCCNCCC(=O)Nc1sc2c(c1-c1nc3cc(-c4cnn(C(C)C)c4)ccc3s1)CCNC2 [compound 465]
> 6.52 | > 6.52 | COCCNCCC(=O)Nc1sc2c(c1-c1nc3ccc(-c4cnoc4)cc3s1)CCNC2 [compound 469]
> 6.52 | > 6.52 | COCCNCCC(=O)Nc1sc2c(c1-c1nc3cc(-c4cnoc4)ccc3s1)CCNC2 [compound 481]
> 6.52 | > 6.52 | COCCNCCC(=O)Nc1sc2c(c1-c1nc3ccc(-c4cccc(C(=O)NCCN(C)C)c4)cc3s1)CCNC2 [compound 493]

SMILES | pIC50 (c-Myc/Max/Ebox DNA) | pIC50 [1]
CC(C)NCCC(=O)Nc1sc2c(c1-c1nc3ccc(C4=CCNCC4)cc3s1)CCNC2 [compound 194] | > 6.52 | > 6.52
COCCNCCC(=O)Nc1sc2c(c1-c1nc3ccc(C4=CCNCC4)cc3s1)CCNC2 [compound 459] | > 6.52 | > 6.52
